# Assay results reported in a melting point compilation (Tetko et al.; mined from patent text by program, amines drawn as free bases though some values may be those of a salt).
row,Compound,melting point [°C]
1,C=CCN1C(=O)COc2cc(Br)c(F)cc21,92
2,COC(=O)c1cc(=O)c2cc(F)ccc2o1,138 to 139
3,COC(=O)CCC/C=C\[C@@H]1C[C@@H](NS(=O)(=O)c2ccc(Cl)cc2)CN1S(=O)(=O)c1ccc(Cl)cc1,95 to 96
4,CC(C)N=C(NC#N)Nc1cc(C(F)(F)F)cc(C(F)(F)F)c1,176 to 182
5,CCOC(=O)NC(=O)C(Cl)C(C)=O (stereo not given),69.5 to 70
6,Cc1ccc2c(c1F)N(C1CC1)CNS2(=O)=O,135 to 138
7,COC(=O)c1cc2ccc(Cl)c(Cl)c2o1,162
8,Cc1cn(C2OC(CO)C(O)C2F)c(=O)[nH]c1=O (stereo not given),185 to 186
9,Clc1nnc(Cl)c2sccc12,260 to 263
10,CC1CN(c2c(F)c(N)c3c(=O)c(C(=O)O)cn(C4CC4)c3c2F)CCN1 (stereo not given),251 to 253
11,CCCc1nn(-c2ccc(C(F)(F)F)cn2)cc1CCCOc1nn(C)cc1CCC(=O)O,103 to 104
12,CCNC(=O)N(CC)C(=O)c1nc(Cl)c(Cl)[nH]1,146
13,COC(=O)[C@H](C)N(C(=O)[C@H](CC(C)C)NC(=O)OC(C)(C)C)c1ccc(F)cc1,121 to 122
14,CC1=C(c2ccnnc2)SCC(=O)N1,231 to 233
15,CN1NC(=O)CSC1=Nc1ccc(Cl)c(Cl)c1,118 to 120
16,CCN1CCCC1=NC(=O)Nc1c(C)cccc1C,120 to 122
17,CCCCCCCCCCOS(=O)(=O)NC(=O)Nc1c(C(C)C)cccc1C(C)C,133 to 135
18,COc1ccc2c(c1)CCC1C2CCC2(C)C(O)C(N)CC12 (stereo not given),159 to 161
19,CCOC(=O)c1[nH]c(SCC)nc1C(C)(C)O,82 to 85
20,CCOC(=O)c1cnn(-c2cc(Cl)cc(Cl)c2)c1C#N,101 to 103
21,CNC(=O)Oc1ccc2ccccc2c1,119
22,CCCCCCCCCCCCSC(=O)CS(=O)(=O)Nc1c(C(C)C)cccc1C(C)C,58 to 60

row,Compound,melting point [°C]
1,CCOC(=O)C(=O)Nc1cc(OC)ccc1[N+](=O)[O-],158
2,CN1C(=O)CCCc2cc(Nc3ncc(Cl)c(NC4CCCCC4C(N)=O)n3)ccc21 (stereo not given),251 to 253
3,CCc1nc2c(C)c([N+](=O)[O-])c(C)nc2[nH]1,146 to 149
4,CN1CC2CC(=O)NC3C=CC=C4Cc5ccccc5C(C1)C2N43 (stereo not given),165 to 168
5,CC1(C)CCC[C@]2(C)OC(=O)C[C@H]12,74 to 75
6,Cc1cc(-c2c(F)cc3c(=O)c(C(=O)O)cn(C4CC4)c3c2F)cc(C)n1,246 to 248
7,CC(C)(C)OC(=O)NC1CCN(c2nc3c(cc2F)c(=O)n(N)c(=O)n3C2CC2)C1 (stereo not given),108 to 110
8,Cc1cc(I)cc(CO)c1N,101 to 103
9,Cc1c(C(F)(F)F)cnn(-c2ccc(Cl)c(C=C(Cl)C(=O)O)c2)c1=O,168
10,C[Si](C)(C)c1cc(Cl)sc1C(=O)NCCO,110 to 114
11,C=CCON=C(CC)C1=C(O)CC(c2c(C)c(C)c3c(c2C)CC(C)(CC)C3)CC1=O (stereo not given),64 to 65
12,Cc1c(C#Cc2ccc(C(F)(F)F)cc2)ccc(N)c1C#N,136 to 138
13,N#Cc1c(N2CCCCC2)cccc1[N+](=O)[O-],119 to 121
14,CCOC(=O)CCc1cccc2c1NC(=O)CC2,102 to 103
15,CC(C)(C)c1c(=O)o[n-][n+]1CCSC12CC3CC(CC(C3)C1)C2,55 to 56
16,COc1cc(CC(C)=O)ccc1OCCCN1CCC(c2noc3cc(F)ccc23)CC1,118 to 119
17,CS(=O)(=O)N1CCCn2c(nc3c(N)nc4cc(Br)ccc4c32)C1,303
18,COC(=O)c1ccc2c(c1)Sc1cc3c(cc1CC2)CCC3,110 to 111
19,O=C(O)c1c(Br)c(Br)c([N+](=O)[O-])c2c1OCCO2,238
20,CCC(C)(C)c1c(OCc2ncnn2C)nn2c(-c3c(F)ccc(F)c3F)nncc12,122 to 125
21,CCOC(=O)C(=CNc1coc2cc(OC)ccc2c1=O)C(=O)OCC,139 to 141
22,COC(=O)c1sc(C)c(N)c1C,88 to 89

# Results, then the molecule that gave them:
row,melting point [°C],Compound
1,166 to 168,Nc1ccc(C#Cc2ccc(C#Cc3ccccc3)cc2[N+](=O)[O-])cc1
2,106 to 116,NC1=NC(c2cccc(-c3cccnc3F)c2)(c2cnn(CC(F)(F)F)c2)C2=NCCCN12 (stereo not given)
3,158 to 160,Cc1ccc(Cl)c(Nc2ccccc2C(=O)NN)c1Cl
4,160,CC(C)(Oc1ccc(CC(=O)Nc2cc(Cl)c(Cl)c(Cl)c2)cc1)C(=O)O
5,67 to 70,Cn1ncnc1/C=C/c1ccccc1
6,60 to 65,Cl[Si](Cl)(Cl)Cc1ccc(-c2ccccc2)cc1
7,172 to 174,COc1ccc(C(=O)Nc2ccccc2)cc1NCc1cccc(C#N)c1
8,60,COCCOCOc1ccc2cc(C(=O)N(C)Cc3cccc(-c4ccc(Nc5cccc(C(=O)O)c5)cc4)c3)ccc2c1
9,190 to 192,OC(Cc1ccnc2ccccc12)C(Cl)(Cl)Cl (stereo not given)
10,130 to 131,CCC(=O)N1Cc2cn[nH]c2-c2ccccc21
11,72,O=C(O)COc1ccc(OCc2ccccc2)cc1OCc1ccccc1
12,212 to 219,CCOC(=O)c1ccc(N=C(Nc2ccc(C(=O)OCC)cc2)c2ccc(C(C)(C)C)cc2)cc1
13,61 to 62,O=Cc1cccnc1Oc1ccc(F)cc1
14,92.4 to 93.5,CCOC(=O)CCc1coc2c(O[Si](C)(C)C(C)(C)C)c3ccccc3c(C)c12
15,154 to 155,O=C(O)c1ccccc1COc1cccc(Cl)c1
16,142 to 144,Cc1cccc(Nc2cc(Nc3cccc(OCCCN(C)C)c3)ncn2)c1
17,110 to 111,Cc1cc(-c2noc(C(F)F)n2)cc(C)c1OCCCc1n[nH]c(=O)s1
18,140 to 141,COC(=O)c1ccc(NC(=O)CCc2c(C)noc2-c2ccccc2)cc1
19,246 to 247,O=C(O)c1cc(-n2c3c(c(-c4ccccc4)c2-c2ccccc2)CCCC3)ccc1O

row,melting point [°C],Compound
1,128 to 131,Cc1cccc(NC(=O)OC(C)(C)C)c1COc1cccn2c(C)c(C)nc12
2,215 to 216,NC(=O)NCc1ccc(-c2ccc3oc([N+](=O)[O-])c(-c4ccccc4)c3c2)cc1
3,115 to 116,CC(C)Oc1ccc(CCCOc2nn(Cc3ccccc3)cc2CC(=O)O)c(Oc2ncc(C(F)(F)F)cc2Cl)c1
4,238 to 240,O=c1c(Cl)c(Cl)cnn1-c1cc(-c2ccnc(Nc3cccc(Cl)c3)n2)ccn1
5,229,Nc1cc(F)ccc1C(=O)NCCN1CCC(n2c(=O)[nH]c3ccccc32)CC1
6,> 280,N#CC1=C(C2CCN(C(=O)c3ccccc3)CC2)Nc2n[nH]cc2C1c1cccc(C#N)c1Br (stereo not given)
7,217 to 219,O=c1cc2c(nn1-c1ccc(Cl)cc1)-c1cccc(Cl)c1S(=O)CC2 (stereo not given)
8,> 260,O=C1c2cc(F)ccc2C(=O)c2c1nc1ccccn21
9,164,CCc1nc(SC)c(C(=O)O)n1Cc1ccc(-c2ccccc2S(=O)(=O)NC(=O)NCc2ccccc2)cc1
10,120,NC(=O)COc1ccc(OCc2ccccc2)cc1OCc1ccccc1
11,150 to 151,N#CC=C(Cc1ccc2c(c1)OCO2)Nc1ccccc1
12,160 to 174,N#Cc1ccc(-c2cn(-c3ccc(I)cc3)c(SCC(O)CO)n2)cc1 (stereo not given)
13,193 to 194,COc1ccc(C(=O)Nc2ccc(F)cc2)cc1Nc1ccc(F)cc1
14,101 to 103,Cc1ccc(-c2cnc(C#Cc3ccc(C)s3)s2)cc1
15,130 to 132,CCOC(=O)CC(C)NC(=O)c1ccc(N2CCN(c3ccncc3)CC2)cc1 (stereo not given)
16,132 to 136,Cn1nc(-c2c(F)cccc2F)nc1-c1ccc(OCc2ccc(OC(F)(F)F)cc2)c(Cl)c1
17,264 to 265,Cn1c(COc2ccc(CC3SC(=O)NC3=O)cc2)nc2cnccc21 (stereo not given)
18,95 to 96,CC(C)CN1C(=O)c2cnc(-c3ccccc3)nc2N(C(=O)CCl)c2ccccc21
19,148 to 150,CCN1C(=O)C(C)(C)C(=O)N(C)c2cc(CN(CCn3ccc4oc(C)c(C)c4c3=O)Cc3cc(C)nn3C)ccc21

row,melting point [°C],Compound
1,94 to 95,CCC(CC)c1nn(-c2ccc(Br)cn2)cc1CCCOc1c(CC(=O)O)cccc1OC
2,188 to 190,O/N=C(\CCN1CCN(c2ccccn2)CC1)c1ccc(Cl)cc1
3,225,CCOC(=O)C1=CC(C(=O)c2cc(Br)ccc2O)=CN2CCc3c([nH]c4ccc(OC)cc34)C12C(=O)OCC (stereo not given)
4,242 to 244,S=c1c2c(c3cccnc3n1-c1ccccc1)OCC2
5,173 to 174,CCc1[nH]n(C2CCCC2)c2nc(Cc3cccs3)nc(=O)c1-2
6,225 to 227,CCN1C(=O)CCCc2c1ccc(Nc1ncc(Cl)c(Nc3ccccc3C(=O)NC)n1)c2OC
7,256,CC(=O)N1CCN(CCn2c3ccccc3c(=NN=C3NCCS3)c3ccccc32)CC1
8,233 to 235,CCC(c1ccccc1)c1n[nH]c2c1c(=O)n(-c1ccccc1)c1ncccc21 (stereo not given)
9,78.5 to 80.5,FC(F)(F)c1cc(C(F)(F)F)n2nc(SCc3ccccc3)nc2n1
10,187 to 189,CN1CCC(n2ccc(-c3ccc(F)cc3)c2-c2ccncc2)CC1
11,140 to 141,CSc1ccc(/C=C/c2nc3ccccc3n2-c2ccccn2)cc1
12,116,Cc1nc(-c2ccc(F)cc2Cl)nn1-c1ccccc1C(F)(F)F
13,157 to 159,Cc1ccnc2c(Oc3ccc(N)cc3)cccc12
14,234 to 236,CCCOc1ccc(F)c2c(=O)c(-c3ccc(C(=O)N4CCOCC4)cc3)c[nH]c12
15,205,Cc1nc(NCCc2ccc(OCc3nn[nH]n3)cc2)c2cc(C)sc2n1
16,> 300,Nc1nc2c(=O)c3cc(Cl)ccc3oc2cc1-c1nnn[nH]1
17,238 to 240,COc1cc2c3c(n(C)c(=O)c2cc1OC)-c1cc(OCc2ccccc2)c(OCc2ccccc2)cc1C3=O
18,46 to 48,C=C1c2ccccc2-c2ccccc21
